The structures appear in SMILES notation. Structures can show the parent of a compound that is named as a salt.

Sequence of rhesus (Macacca Mulatta) H3 receptor (Q865E1 1-445): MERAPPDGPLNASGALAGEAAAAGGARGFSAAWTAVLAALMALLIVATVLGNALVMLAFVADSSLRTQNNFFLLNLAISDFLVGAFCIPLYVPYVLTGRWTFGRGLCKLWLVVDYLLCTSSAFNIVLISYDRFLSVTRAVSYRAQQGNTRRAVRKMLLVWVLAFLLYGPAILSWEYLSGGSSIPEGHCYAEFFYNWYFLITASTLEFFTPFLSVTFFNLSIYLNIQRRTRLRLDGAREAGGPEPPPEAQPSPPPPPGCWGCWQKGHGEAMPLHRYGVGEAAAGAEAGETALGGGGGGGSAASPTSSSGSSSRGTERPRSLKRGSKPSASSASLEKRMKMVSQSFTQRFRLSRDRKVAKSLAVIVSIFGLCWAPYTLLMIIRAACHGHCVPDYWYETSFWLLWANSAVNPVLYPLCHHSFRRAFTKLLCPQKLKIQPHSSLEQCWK

The assay addresses rhesus (Macacca Mulatta) H3 receptor (Macaca mulatta, UniProt Q865E1). As to the kind of experiment: Rhesus H3 radioligand binding assay ([3H]-Methylhistamine, WGA SPA). On the set-up: species or system rhesus monkey (Macacca Mulatta). The note with it: displacement of [3H]-Methylhistamine (2 nM) from rhesus H3 receptor membranes; Cheng-Prusoff. On the procedure:
(Genbank #AY231164). Stably transfected cultures were amplified in tissue culture flasks by standard tissue culture methods and induced to express rhesus H3 by exposure to 500 ng/ml tetracycline (Cellgro) for 24 hours. After induction, cells were dissociated from flasks utilizing Cell Stripper (Cellgro). Cells were centrifuged (1K×g, 5 min) and pellet frozen in an ethanol-dry ice bath to disrupt cell membranes. Frozen cell pellet was re-suspended in 5 mM HEPES (pH 7.4, Invitrogen) at 10 ml/1000 cm2 of harvested cells. The cell suspension was drawn through an 18 gauge needle (2-3×) followed by a 23 gauge needle (2-3×) to further disrupt cell membranes. The cell suspension was centrifuged (40K×g, 30 min). Cell membrane pellet was re-suspended in 5 mM HEPES (pH 7.4, Invitrogen) at a final protein concentration of 10 mg/ml. Rhesus H3 membranes were stored under liquid nitrogen prior to use in [3H]-Methylhistamine and GTPγS radioligand binding assays.
Rhesus H3 radioligand binding assay was performed using rhesus H3 receptor membranes (prepared as described above), [3H]-Methylhistamine (Perkin Elmer) and WGA SPA beads (wheat germ agglutinin scintillation proximity assay) beads (Amersham). The assay was performed in 96-well Opti-Plates (Packard). Each reaction contained 50 μl rhesus H3 membranes (20-30 μg total protein), 50 μl WGA SPA beads (0.1 μg) and 50 μl of 83 Ci/mmol [^3H]-Methylhistamine (final concentration 2 nM) and 50 μl of tested compound. The compounds of this invention and/or vehicle were diluted with binding buffer from 10 mM DMSO stocks. Assay plates were sealed with TopSeal (Perkin Elmer) and mixed on shaker (25° C., 1 hour). Assay plates were read on TopCount scintillation counter (Packard). Results were analyzed by Hill transformation and Ki values were determined by Cheng-Prusoff equation.
(In general: Displacement assays read how much labelled ligand stays bound in the presence of the test substance.)
Molecule `C[C@H]1CCCN1C1CC[C@H](c2ccc(NC(=O)OCc3ccccc3)cc2)C1` (mixture of isomers) [Intermediate (13), {4-[(S)-3-((S)-2-Methyl-pyrrolidin-1-yl)-cyclopentyl]-phenyl}-carbamic acid benzyl ester] had a Ki of 37.4 nM.

Take `C[C@H]1CCCN1C1CC[C@H](c2ccc(N3CCC4(CCOCC4)C3=O)cc2)C1` (stereo partly drawn) [Example 1, 2-{4-[(S)-3-((S)-2-Methyl-pyrrolidin-1-yl)-cyclopentyl]-phenyl}-8-oxa-2-aza-spiro[4.5]decan-1-one]: affinity was put at a Ki of 11.9 nM.

On to `C[C@H]1CCCN1C1CC[C@H](c2ccc(N3CCC4(CCCCC4)C3=O)cc2)C1` (stereo partly drawn) [Example 2, 2-{4-[(S)-3-((S)-2-Methyl-pyrrolidin-1-yl)-cyclopentyl]-phenyl}-2-aza-spiro[4.5]decan-1-one], for which the Ki is 12.8 nM.

For the molecule `CC1CCCN1C1CC[C@H](c2ccc(N3CCCC4(CCN(C(=O)OC(C)(C)C)CC4)C3=O)cc2)C1` (stereo partly shown) [Example 3, 2-{4-[3-(2-Methyl-pyrrolidin-1-yl)-cyclopentyl]-phenyl}-1-oxo-2,9-diaza-spiro[5.5]undecane-9-carboxylic acid tert-butyl ester], the affinity, expressed as Ki, was 17.9 nM.

`CC1CCCN1C1CC[C@H](c2ccc(N3CCC4(CCC(O)CC4)C3=O)cc2)C1` (stereo partly shown) [Example 4, 8-Hydroxy-2-{4-[3-(2-methyl-pyrrolidin-1-yl)-cyclopentyl]-phenyl}-2-aza-spiro[4.5]decan-1-one]: the inhibition constant Ki amounted to 75.2 nM.

With `CC1CCCN1C1CC[C@H](c2ccc(N3CCC4(CCN(C(=O)OC(C)(C)C)CC4)C3=O)cc2)C1` (stereo partly shown) [Example 6, 2-{4-[3-(2-Methyl-pyrrolidin-1-yl)-cyclopentyl]-phenyl}-1-oxo-2,8-diaza-spiro[4.5]decane-8-carboxylic acid tert-butyl ester], the affinity, expressed as Ki, was 26.8 nM.

The molecule `CC1CCCN1C1CC[C@H](c2ccc(N3CCCC4(CCCC4)C3=O)cc2)C1` (stereo partly shown) [Example 7, 7-{4-[3-(2-Methyl-pyrrolidin-1-yl)-cyclopentyl]-phenyl}-7-aza-spiro[4.5]decan-6-one] gave a Ki of 27.5 nM.

Consider `CC1CCCN1C1CC[C@H](c2ccc(N3CCCC4(CCNCC4)C3=O)cc2)C1` (stereo partly shown) [Example 8, 2-{4-[3-(2-Methyl-pyrrolidin-1-yl)-cyclopentyl]-phenyl}-2,9-diaza-spiro[5.5]undecan-1-one hydrochloride], for which the Ki worked out at 6.07 nM.

`O=C1N(c2ccc([C@H]3CC[C@H](N4CCCC4)CC3)cc2)CCC12CCOCC2` [Example 9, 2-[4-(4-Pyrrolidin-1-yl-cyclohexyl)-phenyl]-8-oxa-2-aza-spiro[4.5]decan-1-one]: the affinity corresponds to a Ki of 112 nM.

Molecule `C[C@@H]1CCCN1[C@H]1CC[C@H](c2ccc(N3CCC4(CCOCC4)C3=O)cc2)CC1` [Example 10, 2-{4-[4-((R)-2-Methyl-pyrrolidin-1-yl)-cyclohexyl]-phenyl}-8-oxa-2-aza-spiro[4.5]decan-1-one] gave an inhibition constant Ki of 35.3 nM.

As for `C[C@H]1CCCCN1[C@H]1CC[C@H](c2ccc(N3CCC4(CCOCC4)C3=O)cc2)CC1` [Example 11, 2-{4-[4-((S)-2-Methyl-piperidin-1-yl)-cyclohexyl]-phenyl}-8-oxa-2-aza-spiro[4.5]decan-1-one], the Ki worked out at 39.4 nM.

For the molecule `C[C@H]1CCCN1[C@H]1CC[C@H](c2ccc(N3CCC4(CCOCC4)C3=O)cc2)CC1` [Example 12, 2-{4-[4-((S)-2-Methyl-pyrrolidin-1-yl)-cyclohexyl]-phenyl}-8-oxa-2-aza-spiro[4.5]decan-1-one], the affinity, expressed as Ki, was 6.1 nM.

With `CC(C)(C)OC(=O)N1CCC2(CC1)CCN(c1ccc([C@H]3CC[C@H](N4CCCC4)CC3)cc1F)C2=O` [Example 13, 2-[2-Fluoro-4-(4-pyrrolidin-1-yl-cyclohexyl)-phenyl]-1-oxo-2,8-diaza-spiro[4.5]decane-8-carboxylic acid tert-butyl ester], the Ki is 379 nM.

`CC(C)(C)OC(=O)N1CCC2(CC1)CCN(c1ccc([C@H]3CC[C@H](N4CCC4)CC3)cc1F)C2=O` [Example 15, 2-[4-(4-Azetidin-1-yl-cyclohexyl)-2-fluoro-phenyl]-1-oxo-2,8-diaza-spiro[4.5]decane-8-carboxylic acid tert-butyl ester] had an inhibition constant Ki of 220 nM.

Take `C[C@H]1CCCN1[C@H]1CC[C@H](c2ccc(N3CCC4(CCNCC4)C3=O)c(F)c2)CC1` [Example 17, 2-{2-Fluoro-4-[4-((S)-2-methyl-pyrrolidin-1-yl)-cyclohexyl]-phenyl}-2,8-diaza-spiro[4.5]decan-1-one hydrochloride]: the Ki was 84.3 nM.

In turn, `C[C@@H]1CCCN1[C@H]1CC[C@H](c2ccc(N3CCC4(CCNCC4)C3=O)c(F)c2)CC1` [Example 18, 2-{2-Fluoro-4-[4-((R)-2-methyl-pyrrolidin-1-yl)-cyclohexyl]-phenyl}-2,8-diaza-spiro[4.5]decan-1-one hydrochloride] displayed an inhibition constant (Ki) of 11.3 nM.

The molecule `O=C1N(c2ccc([C@H]3CC[C@H](N4CCC4)CC3)cc2F)CCC12CCNCC2` [Example 19, 2-[4-(4-Azetidin-1-yl-cyclohexyl)-2-fluoro-phenyl]-2,8-diaza-spiro[4.5]decan-1-one hydrochloride] showed a Ki of 82.2 nM.

`O=C1N(c2ccc([C@H]3CC[C@H](N4CCCC4)CC3)cc2F)CCC12CCNCC2` [Example 20, 2-[2-Fluoro-4-(4-pyrrolidin-1-yl-cyclohexyl)-phenyl]-2,8-diaza-spiro[4.5]decan-1-one hydrochloride] came in with a Ki of 137 nM.

Regarding `C[C@H]1CCCN1C1CC=C(c2ccc(NC(=O)OCc3ccccc3)c(F)c2)CC1` (stereo partly drawn) [Example 21, {2-Fluoro-4-[4-((S)-2-methyl-pyrrolidin-1-yl)-cyclohex-1-enyl]-phenyl}-carbamic acid benzyl ester], the affinity corresponds to a Ki of 6.88 nM.

As for `CC(=O)N1CCC(C(=O)Nc2ccc([C@H]3CCC(N4CCC[C@@H]4C)C3)cc2)CC1` (stereo partly drawn) [Example 22, 1-Acetyl-piperidine-4-carboxylic acid {4-[(S)-3-((S)-2-methyl-pyrrolidin-1-yl)-cyclopentyl]-phenyl}-amide], the Ki was 118 nM.

`C[C@H]1CCCN1C1CC[C@H](c2ccc(NC(=O)c3cccs3)cc2)C1` (stereo partly drawn) [Example 23, Thiophene-2-carboxylic acid {4-[(S)-3-((S)-2-methyl-pyrrolidin-1-yl)-cyclopentyl]-phenyl}-amide] had a Ki of 46.5 nM.

In turn, `C[C@H]1CCCN1C1CC[C@H](c2ccc(NS(=O)(=O)c3ccc(F)cc3)cc2)C1` (stereo partly drawn) [Example 24, 4-Fluoro-N-{4-[(S)-3-((S)-2-methyl-pyrrolidin-1-yl)-cyclopentyl]-phenyl}-benzenesulfonamide] came in with an inhibition constant Ki of 12.4 nM.

Molecule `Cc1ccc(F)cc1C(=O)Nc1ccc([C@H]2CCC(N3CCC[C@@H]3C)C2)cc1` (stereo partly drawn) [Example 25, 5-Fluoro-2-methyl-N-{4-[(S)-3-((S)-2-methyl-pyrrolidin-1-yl)-cyclopentyl]-phenyl}-benzamide] came in with a Ki of 45.7 nM.

The molecule `Cc1noc(C)c1C(=O)Nc1ccc([C@H]2CCC(N3CCC[C@@H]3C)C2)cc1` (stereo partly drawn) [Example 26, 3,5-Dimethyl-isoxazole-4-carboxylic acid {4-[(S)-3-((S)-2-methyl-pyrrolidin-1-yl)-cyclopentyl]-phenyl}-amide] showed an inhibitory constant (Ki) of 6.01 nM.

In turn, `C[C@H]1CCCN1C1CC[C@H](c2ccc(NS(=O)(=O)C3CC3)cc2)C1` (stereo partly drawn) [Example 27, Cyclopropanesulfonic acid {4-[(S)-3-((S)-2-methyl-pyrrolidin-1-yl)-cyclopentyl]-phenyl}-amide] returned a Ki of 34 nM.

`C[C@H]1CCCN1C1CC[C@H](c2ccc(NC(=O)C3CCOCC3)cc2)C1` (stereo partly drawn) [Example 28, Tetrahydro-pyran-4-carboxylic acid {4-[(S)-3-((S)-2-methyl-pyrrolidin-1-yl)-cyclopentyl]-phenyl}-amide] returned a Ki of 33.7 nM.

Molecule `C[C@H]1CCCN1C1CC[C@H](c2ccc(NS(=O)(=O)c3ccc(F)c(F)c3)cc2)C1` (stereo partly drawn) [Example 30, 3,4-Difluoro-N-{4-[(S)-3-((S)-2-methyl-pyrrolidin-1-yl)-cyclopentyl]-phenyl}-benzenesulfonamide] yielded an inhibition constant Ki of 27.4 nM.

As to `C[C@H]1CCCN1C1CC[C@H](c2ccc(NC(=O)c3ccc(F)cc3)cc2)C1` (stereo partly drawn) [Example 31, 4-Fluoro-N-{4-[(S)-3-((S)-2-methyl-pyrrolidin-1-yl)-cyclopentyl]-phenyl}-benzamide], the affinity corresponds to a Ki of 34.9 nM.

The molecule `C[C@H]1CCCN1C1CC[C@H](c2ccc(NC(=O)c3ccc(Cl)cc3)cc2)C1` (stereo partly drawn) [Example 32, 4-Chloro-N-{4-[(S)-3-((S)-2-methyl-pyrrolidin-1-yl)-cyclopentyl]-phenyl}-benzamide] yielded a Ki of 65.5 nM.

Regarding `Cc1ccccc1C(=O)Nc1ccc([C@H]2CCC(N3CCC[C@@H]3C)C2)cc1` (stereo partly drawn) [Example 33, 2-Methyl-N-{4-[(S)-3-((S)-2-methyl-pyrrolidin-1-yl)-cyclopentyl]-phenyl}-benzamide], the affinity corresponds to a Ki of 32.6 nM.

`Cc1ccc(C(=O)Nc2ccc([C@H]3CCC(N4CCC[C@@H]4C)C3)cc2)cc1` (stereo partly drawn) [Example 34, 4-Methyl-N-{4-[(S)-3-((S)-2-methyl-pyrrolidin-1-yl)-cyclopentyl]-phenyl}-benzamide] displayed a Ki of 98.7 nM.

Usually Ki stands for a dissociation constant, usually derived from enzyme kinetics or from competition with a known ligand.

(Values after patent US9453023B2, “Substituted phenyl cycloalkyl pyrrolidine (piperidine) spirolactams and amides, preparation and therapeutic use thereof” (SANOFI, priority 2010, dated 2016).)
